Data reported in patent US7132453B2, “Method of using prostacyclin to treat respiratory syncytial virus infections” (Vanderbilt University, priority 2002, dated 2006).
“Also recorded” adds a separate entry of the source. Like-named read-outs stand apart in the source and are kept apart here.

How the values were obtained:
[1] = system: vaccinia virus; settings: BALB/c mice; cited from earlier work
[2] = cited from earlier work
[3] = in vivo; cited from earlier work
[4] = system: RSV; experiment: Indomethacin in drinking water in RSV-infected BALB/c mice (weight loss curve); type: in vivo
Description: Genetically altered mice having the BALB/c background were obtained from Charles Rivers Laboratories, 251 Ballardvale Street,. Wilmington, Mass. 01887-1000. Modification to the level of PGI2 was accomplished by introducing indomethacin to the BALB/c mice. Indomethacin is a drug that is used to treat arthritis and other rheumatologic conditions and inhibits the activity of both COX-1 and COX-2 such that the formation of prostanoids, specifically PGI2, are not produced. Indomethacin is given to the mice in their drinking water in order to block the cyclooxygenase enzymes in order to determine the effect of the cyclooxygenase pathway on the immune response to RSV infection. Indomethacin is commercially available from Sigma, Inc. St. Louis, Mo.
As best seen in FIG. 4, mice treated with indomethacin have a much difference weight loss curve. Within the experiment, BALB/c mice were provided water having indomethacin, 30 micrograms/ml.
Female BALB/c mice that are 8–10 weeks of age and that weigh approximately 20 grams were used to determine the amount of weight loss that results from an RSV infection. The BALB/c mice were infected with RSV strain A as described in Example 1. Subsequent to infection, the mice received water in their drinking bottles to drink during the course of an infection. On day 5, the mice started to lose weight and the peak of illness as measured by maximal weight loss occurred on day 9. […] These mice then recovered and were fully back to baseline by day 19 after infection. FIG. 3 is an example of a typical body weight curve that occurs with RSV induced illness. On the Y-axis is the body weight as a percentage of the pre-infection weight. This curve is very reproducible although factors such as the strain of the mouse and the viral load administered can alter the severity and duration of illness.

[5] = system: RSV strain A; experiment: UT-15 by subcutaneous micro-infusion pump in RSV-infected BALB/c mice (mortality, body weight); type: in vivo; settings: for survival percentage: FIG. 7
Description: The genetically altered mice and control mice were anesthetized with ketamine and xylazine, as described in Peebles, et al., 2001, J. Med. Virol. 63:178–88, which is incorporated herein by reference. The mice were intranasally infected with 10^7 pfu of RSV strain A. American Type Culture Collection, Manassas, Va.
In order to insert a micro-infusion pump into a mouse, the skin of the back, slightly posterior to the scapulae will be shaved and washed with ethanol. Subcutaneous implantation is technically the easiest and least invasive procedure. The usual site for subcutaneous implantation of Azlet pumps in mice is on the back, slightly posterior to the scapulae. Pumps are commercially available at: Alzet Osmotic Pumps, Durect Corporation, P.O. Box 530, Cupertino, Calif. 95015-0530. Absorption of the compound placed in the pump by local capillaries results in systemic administration. For subcutaneous pump implantation, the following steps are performed:
A micro-infusion pump system was inserted into a mouse as previously described in Example 8. After the micro-infusion pump was in place, UT-15 was administered subcutaneously for two weeks starting on the day prior to infection. The BALB/c mice received either different concentrations of UT-15 or water only, as indicated below. BALB/c mice were infected with RSV strain A as described in Example 1. There were 8–10 mice per group. The weight of each mouse was monitored on a daily basis. The mice were put on a scale to measure their weight.
Mice having received micro-infusion pumps received infusion of either water of some concentration of UT-15 for a period of 2 weeks after starting the day prior to RSV infection. […] Also shown are the percentage of body weight for each of the animals on each given day for the other animals either receiving no UT-15 or other concentrations of UT-15.

[6] = indomethacin 30 micrograms/ml in drinking water, FIG. 4

SMILES: CC(=O)Oc1ccccc1C(=O)O [aspirin]
- mortality from vaccinia virus infection vs non-treated mice [1]: marked increase in mortality

SMILES: CCCCC[C@H](O)/C=C/[C@@H]1[C@H]2C/C(=C/CCCC(=O)O)O[C@H]2C[C@H]1O [Epoprostenol]
- side effects ([2]; in vivo, iv): flushing, headache, chest pain, sweating, flu-like symptoms, nausea, vomiting, and systemic hypotension

SMILES: CC#CCC(C)[C@H](O)/C=C/[C@@H]1[C@H]2C/C(=C/CCCC(=O)O)C[C@H]2C[C@H]1O (stereo partly drawn) [Iloprost]
- safety of administration to patients ([2]; iloprost: long-term, pulmonary hypertension patients, UT-15: patients treated for another disease): safe
- share of oral iloprost reaching the systemic circulation [3]: less than 20%

SMILES: COc1ccc2c(c1)c(CC(=O)O)c(C)n2C(=O)c1ccc(Cl)cc1 [indomethacin]
- effect on RSV-induced illness ([4]; FIG. 4 legend): exacerbates and delays recover from RSV-induced illness
- day of peak illness (weight loss) [4, 6]: 11 days
- recovery of body weight after RSV infection [4, 6]: did not recover their weight
- mortality from vaccinia virus infection vs non-treated mice [1]: marked increase in mortality

SMILES: CCCCC[C@H](O)CC[C@@H]1[C@H]2Cc3cccc(OCC(=O)O)c3C[C@H]2C[C@H]1O [UT-15]
- safety of administration to patients ([2]; in vivo): safely used
- protection against RSV-induced mortality (percent survival) ([5]; FIG. 7 legend and summary text, 2.0 and 20 ng/kg/min vs none): protects against RSV-induced mortality; also recorded: increase percentage of survival
- protection against RSV-induced illness (percent of body weight) ([5]; FIG. 8 legend, 20, 30, 40 ng/kg/min vs none): protects against RSV-induced illness
- recovery period of the surviving mice vs mice without UT-15 ([5]; UT-15 2.0 ng/kg/min): the recovery period was quicker
- survival percentage ([5]; UT-15 2.0 ng/kg/min subcutaneous for two weeks from the day prior to infection): next best survival percentage
- survival percentage ([5]; UT-15 20 ng/kg/min subcutaneous for two weeks from the day prior to infection): best survival percentage
- recovery period for body weight ([5]; UT-15 20 ng/kg/min, compared with 0, 30 and 40 ng/kg/min, FIG. 8): quickest recovery period for body weight
